The values that follow come from patent US20090011937A1, “Use of Fungicides for Increasing the Quality and Optionally the Quantity of Oil-Plant Products” (priority 2006, published 2009).

Common to all, as to type: in vivo
The subject of assay [1] is Oilseed rape cv. "Trabant". Briefly: Phosphorus content of oil, oilseed rape treated with metconazole or metconazole in combination with boscalid, pressing at high pressure (DIN EN 14107). Conditions: oil of rapeseed cv. Trabant, Bothkamp 2005/2006; metconazole 60 g/ha autumn and spring, boscalid 250 g/ha at anthesis; pressed under high pressure; untreated 5.0. How it is done:
Oilseed rape cv. “Trabant” was grown under the usual conditions in 2005/2006 in Germany at the Bothkamp site. In autumn 2005 (growth stage BBCH 16-18) and in spring 2006 (BBCH 31-51), some of the oilseed rape plants were treated by spraying with metconazole (employed in the form of the commercially available product Caramba®; application rate: in each case 60 g active ingredient per ha). Some other oilseed rape plants were furthermore additionally treated during anthesis (BBCH 65) by spraying with boscalid (employed in the form of the commercially available product Cantus®; application rate: 250 g active substance per ha). For comparison reasons, some of the rapeseed plants remained untreated. The plants were harvested in summer 2006 (growth stage BBCH 92). The rapeseed was pressed with a press from Ökotec under high pressure (nozzle 6, 70 rpm, temperature at the pressing head >70° C.), and the phosphorus content of the resulting oil was determined in accordance with DIN EN 14107.

Assay [2] deals with Oilseed rape. Briefly: Alkaline-earth metal content (Ca, Mg) of oil, oilseed rape treated with metconazole, pressing with normal pressure (DIN EN 14538). Conditions: oil of rapeseed, Germany 2004/2005; spray autumn and spring, in each case 60 g active ingredient per ha; pressed under normal pressure; untreated 5.7. How it is done:
(§1) Oilseed rape was grown in 2004/2005 in Germany under the usual conditions. In autumn 2004 (growth stage BBCH 14-16) and in spring 2005 (growth stage BBCH 31-51), some of the oilseed rape was treated by spraying with metconazole (employed in the form of the commercially available product Caramba®; application rate: in each case 60 g active ingredient per ha). For comparison purposes, the remainder of the oilseed rape remained untreated. The plants were harvested in summer 2005 (growth stage BBCH 92). The rapeseed was pressed with a press from Ökotec under normal pressure (nozzle 8, 40 rpm, temperature at the pressing head 60° C.), and the phosphorus content and the alkaline-earth metal content (Ca, Mg) of the resulting oil were determined in accordance with DIN EN 14107 and DIN EN 14538, respectively.

Assay [3] deals with Oilseed rape cv. "Trabant". Description: Alkaline-earth metal content of oil, oilseed rape treated with metconazole, pressing with normal pressure and high pressure (DIN EN 14538). As to the method: Oilseed rape cv. “Trabant” was grown under the usual conditions in 2005/2006 in Germany at the Bothkamp site. In autumn 2005 (growth stage BBCH 16-18) and in spring 2006 (BBCH 31-51), some of the oilseed rape plants were treated by spraying with metconazole (employed in the form of the commercially available product Caramba®; application rate: in each case 60 g active ingredient per ha). For comparison reasons, the remainder of the rapeseed plants remained untreated. The plants were harvested in summer 2006 (growth stage BBCH 92). The rapeseed was pressed with a press from Ökotec and the alkaline-earth metal content (Ca, Mg) of the resulting oil was determined as specified in DIN EN 14538. Here, part of the rapeseed was pressed under normal pressure (nozzle 8, 40 rpm, temperature at the pressing head 60° C.) and another portion under high pressure (nozzle 6, 70 rpm, temperature at the pressing head >70° C.).

Assay [4] has as its system Oilseed rape. Briefly: Phosphorus content of oil, oilseed rape treated with metconazole, pressing with normal pressure (DIN EN 14107). Conditions: oil of rapeseed, Germany 2004/2005; spray autumn and spring, in each case 60 g active ingredient per ha; pressed under normal pressure; untreated 1.9. How it is done:
as §1

The subject of assay [5] is Oilseed rape cv. "Lioness". Description: Overall contamination of oil from treated oilseed rape (DIN EN 12662). To be noted: oil of rapeseed cv. Lioness, Britain 2005/2006; spray during anthesis (BBCH 61-65); normal pressure; untreated 33. How it is done: Oilseed rape cv. “Lioness” was grown in 2005/2006 in Britain under the normal conditions. During anthesis (growth stage BBCH 61-65), the rapeseed plants were treated by spraying either with boscalid (employed in the form of the commercially available product Cantus®; application rate: 250 g active substance per ha), with boscalid in combination with dimoxystrobin (employed in the form of the commercially available product Pictor®; application rate: in each case 100 g active substance per ha), with prothioconazole (employed in the form of the commercially available product Proline®; application rate: 175 g active substance per ha) or with azoxystrobin (employed in the form of the commercially available product Amistar®; application rate: 200 g active substance per ha). For comparison reasons, some of the rapeseed plants remained untreated. The plants were harvested in summer 2006 (BBCH 92). The rapeseed was pressed with a press from Ökotec under normal pressure (nozzle 8, 40 rpm, temperature at the pressing head 60° C.), and the overall contamination of the oil obtained was determined as specified in DIN EN 12662.

Assay [6] deals with Oilseed rape cv. "Lioness". Description: Sulfur content of oil from treated oilseed rape (EN ISO 20884). Conditions: oil of rapeseed cv. Lioness, Britain 2005/2006; spray during anthesis; normal pressure; untreated 4. As to the method: Oilseed rape cv. “Lioness” was grown in 2005/2006 in Britain under the normal conditions. During anthesis (growth stage BBCH 61-65), the rapeseed plants were treated by spraying either with boscalid (employed in the form of the commercially available product Cantus®; application rate: 250 g active substance per ha), with boscalid in combination with dimoxystrobin (employed in the form of the commercially available product Pictor®; application rate: in each case 100 g active substance per ha), with prothioconazole (employed in the form of the commercially available product Proline®; application rate: 175 g active substance per ha) or with azoxystrobin (employed in the form of the commercially available product Amistar®; application rate: 200 g active substance per ha). For comparison reasons, some of the rapeseed plants remained untreated. The plants were harvested in summer 2006 (BBCH 92). The rapeseed was pressed with a press from Ökotec under normal pressure (nozzle 8, 40 rpm, temperature at the pressing head 60° C.), and the sulfur content of the oil obtained was determined as specified in EN ISO 20884.

Assay [7] relates to Oilseed rape cv. "Talent". Briefly: Resistance to oxidation of oil, oilseed rape treated with boscalid or boscalid in combination with dimoxystrobin (DIN EN 14112). Conditions: oil of rapeseed cv. Talent, Tachenhausen 2005/2006; spray during anthesis; normal pressure; untreated 9.5. How it is done:
Oilseed rape cv. “Talent” was grown in 2005/2006 under the usual conditions at the Tachenhausen site in Germany. During anthesis (growth stage BBCH 61-65), the oilseed rape plants were treated by spraying either with boscalid (employed in the form of the commercially available product Cantus®; application rate: 250 g active substance per ha) or with boscalid in combination with dimoxystrobin (employed in the form of the commercially available product Pictor®; application rate: in each case 100 g active ingredient per ha). For comparison reasons, some of the oilseed rape plants remained untreated. The plants were harvested in summer 2006 (BBCH 92). The rapeseed was pressed with a press from Ökotec under normal pressure (nozzle 8, 40 rpm, temperature at the pressing head 60° C.), and the resistance to oxidation of the oil obtained was determined as specified in DIN EN 14112.

Assay [8] concerns Oilseed rape cv. "Lioness". Description: Acid content of oil, oilseed rape treated with boscalid or boscalid in combination with dimoxystrobin (DIN EN 14104). Conditions: oil of rapeseed cv. Lioness, Britain 2005/2006; spray during anthesis; normal pressure; untreated 0.41. As to the method: Oilseed rape cv. “Lioness” was grown in 2005/2006 in Britain under the normal conditions. During anthesis (growth stage BBCH 61-65), the rapeseed plants were treated by spraying either with boscalid (employed in the form of the commercially available product Cantus®; application rate: 250 g active substance per ha) or with boscalid in combination with dimoxystrobin (employed in the form of the commercially available product Pictor®; application rate: in each case 100 g active substance per ha). For comparison reasons, some of the rapeseed plants remained untreated. The plants were harvested in summer 2006 (BBCH 92). The rapeseed was pressed with a press from Ökotec under normal pressure (nozzle 8, 40 rpm, temperature at the pressing head 60° C.), and the acid content of the oil obtained was determined as specified in DIN EN 14104.

For assay [9], the system named is Oilseed rape cv. "Talent". Description: Iodine number of oil, oilseed rape treated with boscalid (EN 14111). To be noted: oil of rapeseed cv. Talent, Tachenhausen 2005/2006; boscalid 250 g/ha during anthesis; normal pressure; untreated 108. As to the method:
Oilseed rape cv. “Talent” was grown in 2005/2006 under the usual conditions at the Tachenhausen site in Germany. During anthesis (growth stage BBCH 61-65), the oilseed rape plants were treated by spraying with boscalid (employed in the form of the commercially available product Cantus®; application rate: 250 g active substance per ha). For comparison reasons, some of the oilseed rape plants remained untreated. The plants were harvested in summer 2006 (BBCH 92). The rapeseed was pressed with a press from Ökotec under normal pressure (nozzle 8, 40 rpm, temperature at the pressing head 60° C.), and the iodine number of the oil obtained was determined as specified in EN 14111.

With `CC1(C)CCC(Cc2ccc(Cl)cc2)C1(O)Cn1cncn1` (stereo not drawn) [2 × metconazole, metconazole], the Phosphorus content is 4.0 mg/kg in assay [1] and under 1 mg/kg with Oilseed rape [4]. The “Alkaline-earth metal content (Ca + Mg)” value with Oilseed rape [2] came out at 3.9 mg/kg. The “Brittleness of the seed coat” value in [3] (inferred from the more pronounced reduction of alkaline-earth metal content in high-pressure oil versus normal-pressure oil) is reported as “appears to reduce the brittleness of the seed coat”. In [3] (oil of rapeseed cv. Trabant, Bothkamp 2005/2006, metconazole 60 g/ha autumn and spring, high pressure (nozzle 6, 70 rpm, >70° C.), untreated 9), the “Alkaline-earth metal content (Ca + Mg) - high pressure” value stood at 5 mg/kg. In assay [3] (oil of rapeseed cv. Trabant, Bothkamp 2005/2006, metconazole 60 g/ha autumn and spring, normal pressure (nozzle 8, 40 rpm, 60° C.), untreated 6), the “Alkaline-earth metal content (Ca + Mg) - normal pressure” value is 4 mg/kg.

In the case of `OC(Cc1ccccc1Cl)(Cn1nc[nH]c1=S)C1(Cl)CC1` (stereo not drawn) [Prothioconazole, prothioconazole], the Overall contamination in [5] is 22 mg/kg. Further, the Sulfur content in assay [6] is reported as 2 mg/kg.

Turning to `O=C(Nc1ccccc1-c1ccc(Cl)cc1)c1cccnc1Cl` [Boscalid, boscalid], in assay [5], the Overall contamination stood at 20 mg/kg. The “Resistance to oxidation at 110° C.” value in assay [7] is recorded as 9.7 h. For the same compound, the Acid number in assay [8] is listed as 0.32 mg KOH/g. Also, the Sulfur content in [6] worked out at 2 mg/kg. The Iodine number in [9] worked out at 105 g iodine per 100 g.

As for `CO/C=C(/C(=O)OC)c1ccccc1Oc1cc(Oc2ccccc2C#N)ncn1` [Azoxystrobin, azoxystrobin], in assay [5], the Overall contamination is 24 mg/kg. Also, the Sulfur content in assay [6] was determined as 2 mg/kg.
